# In patent US20030118631A1, “Anti-microbial soluble hemostatic gauze and method of making same” (priority 2001, published 2003):
# Experiments:
# [1] = tested on: Staphylococcus Aureus; test: Agar dilution minimum inhibition concentration, aerobic growth base; assay type: cell-based; settings: 37° C., 48 hours, mg antibiotic per liter
# [2] = tested on: Staphylococcus Epidermidis; test: as above; assay type: cell-based; settings: 37° C., 48 hours, mg antibiotic per liter
# [3] = tested on: Streptococcus Faccalis; test: as above; assay type: cell-based; settings: 37° C., 48 hours, mg antibiotic per liter
# [4] = tested on: Streptococcus Gamma; test: as above; assay type: cell-based; settings: 37° C., 48 hours, mg antibiotic per liter
# [5] = tested on: Streptococcus Psittac; test: as above; assay type: cell-based; settings: 37° C., 48 hours, mg antibiotic per liter
# [6] = tested on: Pseudomonas Aeruginosa; test: as above; assay type: cell-based; settings: 37° C., 48 hours, mg antibiotic per liter
# [7] = tested on: Bacillus Pyocyaneus; test: as above; assay type: cell-based; settings: 37° C., 48 hours, mg antibiotic per liter
# [8] = tested on: Bacillus Coli Similis; test: as above; assay type: cell-based; settings: 37° C., 48 hours, mg antibiotic per liter
# [9] = tested on: Bacillus Coli Immobilis; test: as above; assay type: cell-based; settings: 37° C., 48 hours, mg antibiotic per liter
# [10] = tested on: Bacillus Canalis Capsulatus; test: as above; assay type: cell-based; settings: 37° C., 48 hours, mg antibiotic per liter
# [11] = tested on: Klebsiella Pneumoniae; test: as above; assay type: cell-based; settings: 37° C., 48 hours, mg antibiotic per liter
# [12] = tested on: Citrobacter Sp.; test: as above; assay type: cell-based; settings: 37° C., 48 hours, mg antibiotic per liter
# [13] = tested on: Serratia; test: as above; assay type: cell-based; settings: 37° C., 48 hours, mg antibiotic per liter
# [14] = tested on: Bacteroides Fragilis; test: Agar dilution minimum inhibition concentration, anaerobic growth base; assay type: cell-based; settings: anaerobic (nitrogen), 37° C., 48 hours, mg antibiotic per liter
# [15] = tested on: Actinomyces; settings: anaerobic (nitrogen), 37° C., 48 hours, mg antibiotic per liter
# Experimental: (§1) To measure the effectiveness of the our antimicrobial gauze, we tested an antibiotic containing soluble hemostatic gauze material made in accordance with the present invention against the same antibiotic alone. We prepared a growth base for anaeroboic bacteria by mixing 20 grams glucose, 5 grams NaCl, 10 grams protein base, 5 grams yeast powder, 3 grams soluble starch, 20 grams agar and 0.4 grams amino acid. These materials were dissolved in 150 ml distilled water to form a liver paste solution. Then we added 1000 ml. water, adjusted the Ph to 7.2 and autoclaved the material. We prepared another growth base for aerobic bacteria by combining 10 grams beef paste, 10 grams protein base, 3 grams soluble starch, 5 grams NaCl and 20 grams agar in distilled water. Then we added 1000 ml. water, adjusted the Ph to 7.2 and autoclaved the material. We also prepared a series of solutions of the antibiotic chlindamycin in a Ph7.8 phospharese solution. The solutions were: 1280 mg antibiotic/L, 640 mg/L, 320 mg/l, 160 mg/L, 80 mg/L, 40 mg/L, 20 mg/l, 10 mg/L, 5 mg/L, 2.5 mg/L and 1.25 mg/L. We then added 2 ml of each of the diluted antibiotic solutions into a petri dish. Next we added 18 ml of warm (50° C.) autoclaved bacteria growth base prepared as described above for the type of bacteria (anaerobic or aerobic) to be tested to petri dishes to make growth plates. At that point we had growth plates with final antibiotic concentrations of 128, 64, 32, 16, 8, 4, 2, 1, 0.5, 0.25, and 0.125 mg antibiotic per liter.
# (§2) We prepared a second series of growth bases with anti-microbial soluble hemostatic gauze to which the antibiotic chlindamycin had been linked. The gauze was prepared in accordance with the following steps.
# [16] = tested on: Bacteroides Vulgatus; settings: anaerobic (nitrogen), 37° C., 48 hours, mg antibiotic per liter
# Experimental: as §1, §2
# [17] = tested on: Peptostrepococcus; settings: anaerobic (nitrogen), 37° C., 48 hours, mg antibiotic per liter
# Experimental: as §1, §2
# [18] = tested on: Bacteroides Ovatus; test: Agar dilution minimum inhibition concentration, anaerobic growth base; assay type: cell-based; settings: anaerobic (nitrogen), 37° C., 48 hours, mg antibiotic per liter
# [19] = tested on: Fusobacterium Nuleatum; test: as above; assay type: cell-based; settings: anaerobic (nitrogen), 37° C., 48 hours, mg antibiotic per liter
# [20] = tested on: Clostridium Perfringens; assay type: cell-based; settings: anaerobic (nitrogen), 37° C., 48 hours, mg antibiotic per liter
# [21] = tested on: Propionibacterium; test: Agar dilution minimum inhibition concentration, anaerobic growth base; assay type: cell-based; settings: anaerobic (nitrogen), 37° C., 48 hours, mg antibiotic per liter
# [22] = tested on: Lactobacillus Acidophilus; test: as above; assay type: cell-based; settings: anaerobic (nitrogen), 37° C., 48 hours, mg antibiotic per liter
# [23] = tested on: Lactobacillus Plantarum; test: as above; assay type: cell-based; settings: anaerobic (nitrogen), 37° C., 48 hours, mg antibiotic per liter
# [24] = tested on: Bifidobacterium Longum; test: as above; assay type: cell-based; settings: anaerobic (nitrogen), 37° C., 48 hours, mg antibiotic per liter
# [25] = tested on: Bifidobacterium Infantis; test: as above; assay type: cell-based; settings: anaerobic (nitrogen), 37° C., 48 hours, mg antibiotic per liter
# [26] = tested on: Bifidobacterium Adolescents; test: as above; assay type: cell-based; settings: anaerobic (nitrogen), 37° C., 48 hours, mg antibiotic per liter
smiles,measurement,setting,value
"CCC[C@@H]1C[C@@H](C(=O)N[C@@H]([C@H]2O[C@H](SC)[C@H](O)[C@@H](O)[C@H]2O)[C@H](C)Cl)N(C)C1 [Chlindamycin, chlindamycin]",Minimum Inhibited Concentration,[1],1 mg/L
same,Minimum Inhibited Concentration,[2],0.5 mg/L
same,Minimum Inhibited Concentration,[3],1 mg/L
same,Minimum Inhibited Concentration,[4],1 mg/L
same,Minimum Inhibited Concentration,[5],1 mg/L
same,Minimum Inhibited Concentration,[6],128 mg/L
same,Minimum Inhibited Concentration,[7],128 mg/L
same,Minimum Inhibited Concentration,[8],128 mg/L
same,Minimum Inhibited Concentration,[9],128 mg/L
same,Minimum Inhibited Concentration,[10],64 mg/L
same,Minimum Inhibited Concentration,[11],32 mg/L
same,Minimum Inhibited Concentration,[12],64 mg/L
same,Minimum Inhibited Concentration,[13],32 mg/L
same,Minimum Inhibited Concentration,[14],0.5 mg/L
same,Minimum Inhibited Concentration,[15],0.125 mg/L
same,Minimum Inhibited Concentration,[16],0.125 mg/L
same,Minimum Inhibited Concentration,[17],0.125 mg/L
same,Minimum Inhibited Concentration,[18],2 mg/L
same,Minimum Inhibited Concentration,[19],4 mg/L
same,Minimum Inhibited Concentration,[20],0.125 mg/L
same,Minimum Inhibited Concentration,[21],0.25 mg/L
same,Minimum Inhibited Concentration,[22],32 mg/L
same,Minimum Inhibited Concentration,[23],64 mg/L
same,Minimum Inhibited Concentration,[24],64 mg/L
same,Minimum Inhibited Concentration,[25],64 mg/L
same,Minimum Inhibited Concentration,[26],16 mg/L
